Columns and labels:
[1] = Hepatocyte Stability Assay, rat hepatocytes; assay type: in vitro ADME; conditions: cryopreserved hepatocytes, read-out: Rat Heps CLint
Procedure: 10 mM stock solutions of test compound and positive control are prepared in DMSO. Stock solutions are diluted to 100 μM by combining 198 μL of 50% acetonitrile/50% water and 2 μL of 10 mM stock solution. Verapamil is used as positive control in the assay. Vials of cryopreserved hepatocytes are thawed in a 37° C. water bath with gently shaking. The contents are poured into the 50 mL thawing medium conical tube. Vials are centrifuged at 100 g for 10 minutes at room temperature. Thawing medium is aspirated and hepatocytes are re-suspended with serum-free incubation medium to yield ˜1.5×10^6 cells/mL. Cell viability and density are counted using a Trypan Blue exclusion, and then cells are diluted with serum-free incubation medium to a working cell density of 0.5×10^6 viable cells/mL. A portion of the hepatocytes at 0.5×10^6 viable cells/mL are boiled for 5 min prior to adding to the plate as negative control to eliminate the enzymatic activity so that little or no substrate turnover should be observed. Aliquots of 198 μL hepatocytes are dispensed into each well of a 96-well non-coated plate. The plate is placed in the incubator for approximately 10 minutes. Aliquots of 2 μL of the 100 μM test compound and 2 μL positive control are added into respective wells of a non-coated 96-well plate to start the reaction. The final concentration of test compound is 1 μM. This assay is performed in duplicate. The plate is incubated in the incubator for the designed time points. 25 μL of contents are transferred and mixed with 6 volumes (150 μL) of cold acetonitrile with internal standard (100 nM alprazolam, 200 nM labetalol, 200 nM caffeine and 200 nM diclofenac) to terminate the reaction at time points of 0, 15, 30, 60, 90 and 120 minutes. Samples are centrifuged for 25 minutes at 3,220 g and aliquots of 150 μL of the supernatants are used for LC-MS/MS analysis.

[2] = test system: JAK2-mediated pSTAT5 signaling in constitutively active essential thrombocytopenia cells carrying the V617F mutation; test: SET2-pSTAT5 Cellular Assay; assay type: cell-based; conditions: Homo sapiens, SET-2; SET2 cells, pSTAT5, 4 hours, MSD; read-out: IC50
Procedure: This assay measures inhibition of JAK2-mediated pSTAT5 signaling in constitutively active essential thrombocytopenia cells carrying the V617F mutation. Cells are harvested from a flask into cell culture medium, and the number of cells is counted. The cells are diluted with culture medium and 100 μL of cell suspension (50000/well) is added into each well of a 96-well cell culture plate. A solution of test compound is added to the assay plate. The plates are covered with a lid and placed in a 37° C. 5% CO2 incubator for 4 hours. After 4 hours, the cells are spun, and the cell pellets are re-suspended with 100 μL cold PBS. Then, the cells are spun again at 4° C. and 4000 rpm for 5 min. PBS is aspirated, and 25 μL lysis buffer (with protease and phosphatase inhibitor cocktail) is added to each cell pellet. The cell lysate is shaken at 4° C. for 20 min to fully lyse the cells. The cell lysate is spun at 4° C. and 4000 rpm for 15 min, and then the supernatant is transferred into a new plate and stored at −80° C. Meso-scale discovery (MSD) is used to analyze plates as follows: a standard MSD plate is coated with capture antibody in PBS (40 μL/well) and is incubated at 4° C. overnight with shaking. The MSD plate is washed three times with 150 μL/well of 1×MSD Wash Buffer (Tris-buffered saline with 0.1% Tween® 20 detergent, TBST). The MSD plates are then blocked with 150 μL of blocking buffer (5% BSA in TBST) and shaken for 1 h at room temperature and 600 rpm. The MSD plate is washed three times with 150 μL/well of 1×MSD Wash Buffer (TBST). Sample lysates are then added to MSD plates (25 μL/well) and shaken for 1 h at room temperature and 600 rpm. The MSD plate is washed three times with 150 μL/well of 1×MSD Wash Buffer (TBST). Detection antibody (prepared in Antibody Detection buffer, 1% BSA in 1×TBST) is then added to the MSD plates, and they are shaken for 1 h at room temperature and 600 rpm. The MSD plate is washed three times with 150 μL/well of 1×MSD Wash Buffer (TBST). A secondary detection antibody (prepared in Antibody Detection buffer, 1% BSA in 1×TBST) is then added to the MSD plates, and they are shaken for 1 h at room temperature and 600 rpm. The MSD plate is washed three times with 150 μL/well of 1×MSD Wash Buffer (TBST). MSD reading buffer (1×) is added to the plates (150 μL/well), and they are diluted from 4× with water. The plates are imaged using an MSD imaging instrument according to the manufacturer's instructions.

CLint scaled at 1 μM [1] [mL/min/kg] | IC50 [2] [nM] | Compound
35 to 45 | 200 to 1000 | CC(=O)Nc1cc(Oc2cnc3nc(Nc4cc5n(n4)CCCC54CC4)n(C)c3c2C#N)ccn1 [Example I-114, N-(4-((7-cyano-2-((6′,7′-dihydro-5′H-spiro[cyclopropane-1,4′-pyrazolo[1,5-a]pyridin]-2′-yl)amino)-1-methyl-1H-imidazo[4,5-b]pyridin-6-yl)oxy)pyridin-2-yl)acetamide]
< 17 | 200 to 1000 | CC(=O)Nc1cc(Oc2cnc3nc(Nc4cc5n(n4)CCOCC5(C)C)n(C)c3c2C#N)ccn1 [Example I-118, N-(4-((7-cyano-2-((4,4-dimethyl-4,5,7,8-tetrahydropyrazolo[1,5-d][1,4]oxazepin-2-yl)amino)-1-methyl-1H-imidazo[4,5-b]pyridin-6-yl)oxy)pyridin-2-yl)acetamide]
< 17 | < 125 | Cn1c(Nc2cc3n(n2)CCC32CCC2)nc2ncc(Oc3ccnc(NC(=O)C4CC4)c3)c(C#N)c21 [Example I-122, N-(4-((7-cyano-2-((5′,6′-dihydrospiro[cyclobutane-1,4′-pyrrolo[1,2-b]pyrazol]-2′-yl)amino)-1-methyl-1H-imidazo[4,5-b]pyridin-6-yl)oxy)pyridin-2-yl)cyclopropanecarboxamide]
35 to 45 | 200 to 1000 | CCN1CCN(Cc2ccc(Nc3nc4ccc(Oc5ccnc(NC(C)=O)c5)cc4n3C)cc2C(F)(F)F)CC1 [Example R-1, reference compound]

From patent US11970494B2, “6-heteroaryloxy benzimidazoles and azabenzimidazoles as JAK2 inhibitors” (Ajax Therapeutics, Inc., priority 2021, dated 2024)
